This is an account of results in US20240101546A1, “HETEROARYL-ACETYLENES, PHARMACEUTICAL COMPOSITIONS THEREOF, AND THEIR THERAPEUTIC APPLICATIONS” (Eubulus Biotherapeutics Inc., priority 2020, published 2024).

Molecules are shown by their SMILES.

In one assay the test system is lung cancer cell line NCI-H82. Briefly: Cell proliferation assay, NCI-H82 (CELL-TITER GLO). In kind it is cell-based. To be noted: Homo sapiens, NCI-H82, 72 h, NCI-H82 cells, 72 h incubation, cell viability by CELL-TITER GLO, top concentration 1 μM; read-out: EC50, Inhibition of NCl-H82 Cell Proliferation. Summed up: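 NCI-H82 cells, 1,000 per well in RPMI1640, were treated after overnight plating with a 3-fold dilution series from 1 μM. Viability read by CellTiter-Glo luminescence after 72 h. EC50 derived from the curves.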
As to `C#Cc1nc(NC(=O)N[C@@H](CO)c2ccc(N3CCCc4nn(C)cc43)cc2)cs1` [Compound A140, (R)-1-(2-Ethynylthiazol-4-yl)-3-(2-hydroxy-1-(4-(2-methyl-2,5,6,7-tetrahydro-4H-pyrazolo[4,3-b]pyridin-4-yl)phenyl)ethyl)urea], the EC50 is ≤ 0.2 µM.
Consider `C#Cc1nnc(NC(=O)N[C@@H](CO)c2ccc(-c3cccc(N4CCCC4)n3)cc2)s1` [Compound A93, (R)-1-(5-Ethynyl-1,3,4-thiadiazol-2-yl)-3-(2-hydroxy-1-(4-(6-(pyrrolidin-1-yl)-pyridin-2-yl)phenyl)ethyl)urea], for which the EC50 is ≤ 0.2 µM.
`C#Cc1nc(NC(=O)N(C)[C@@H](CO)c2ccc(-c3cccc(N4CCCC4)n3)cn2)cs1` [Compound A91, (R)-3-(2-Ethynylthiazol-4-yl)-1-(2-hydroxy-1-(6-(pyrrolidin-1-yl)-[2,3′-bipyridin]-6′-yl)ethyl)-1-methylurea]: the EC50 is ≤ 0.2 µM.
The same measure, in the same setting: as for `C#Cc1nc(NC(=O)NCc2ccc(-c3ccnc(N4CCCC4)c3)cc2)cs1` [Compound A175, 1-(2-Ethynylthiazol-4-yl)-3-(4-(2-(pyrrolidin-1-yl)pyridin-4-yl)benzyl)urea], the figure is ≤ 0.2 µM; as for `C#Cc1nc(NC(=O)N[C@@H](CO)c2ccc(N3CCC(F)(F)C3)cc2)cs1` [Compound A130, (R)-1-(1-(4-(3,3-Difluoropyrrolidin-1-yl)phenyl)-2-hydroxyethyl)-3-(2-ethynyl-thiazol-4-yl)urea], ≤ 0.2 µM.
The same measure, in the same setting: as for `C#Cc1nc(NC(=O)N[C@@H](CO)c2ccc(-c3cccnc3N3CC(F)(F)C3)cc2)cs1` [Compound A102, (R)-1-(1-(4-(2-(3,3-Difluoroazetidin-1-yl)pyridin-3-yl)phenyl)-2-hydroxyethyl)-3-(2-ethynylthiazol-4-yl)urea], the figure is ≤ 0.2 µM; as for `C#Cc1nc(NC(=O)N[C@@H](COC(N)=O)c2ccc(-c3cccc4ccnc(O)c34)cc2)cs1` [Compound A105, (R)-2-(3-(2-Ethynylthiazol-4-yl)ureido)-2-(4-(1-hydroxyisoquinolin-8-yl)phenyl)-ethyl carbamate], ≤ 0.2 µM.

Staying with this assay, now noted: NCI-H82 cells, 72 h incubation, cell viability by CELL-TITER GLO, top concentration 1 μM; read-out: EC50, Inhibition of NCl-H82 Cell Proliferation.
Turning to `C#Cc1nc(NC(=O)NCc2ccc(-c3cccc4ncsc34)cc2C#N)cs1` [Compound A178, 1-(4-(Benzo[d]thiazol-7-yl)-2-cyanobenzyl)-3-(2-ethynylthiazol-4-yl)urea], the EC50 is ≤ 0.2 µM.
